Values quoted from earlier work as cited in patent US20160015711A1, “CALCIUM PTERIN-6-CARBOXYLATE (CaPTERIN-6-COOH) AS A NOVEL IMMUNO-THERAPEUTIC” (SanRx Pharmaceuticals, Inc., priority 2014, published 2016).

Conditions: pH <4

**Q.** For `Nc1nc([O-])c2nccnc2n1.Nc1nc([O-])c2nccnc2n1.[Ca+2]` [DCP, dipterinyl calcium pentahydrate], which “stability under acidic conditions” value is on record?
**A.** breaks down to form CaPterin
